Measurements as given in patent US8940865B2, “Myocardial peptide, preparation method and uses thereof” (Dalian Zhen-Ao Pharmaceutical Co, Ltd., priority 2008, dated 2015).

Legend:
[1] = tested on: primary culture myocardium cell damaged by hypoxia/reoxygenation; experiment: Anti-hypoxia/reoxygenation injury effect on primary culture myocardium cell (MTT); assay type: cell-based, Neonatal SD rat
Source text: Take ventricle from Neonatal SD rat, wash with D-Hank's and cut to small pieces, digest with collagenase II to obtain the myocardium cell and fibroblast, which are cultivated with high glucose DMEM (dmem-h-15) culture medium containing 15% fetal bovine serum. Remove the fibroblast through differential adhesion and chemistry method, and inoculate myocardium cell on the 96-well plates.
2.1.3 Anti-Hypoxia/Reoxygenation Injury Effect of CMPC to Primary Culture Myocardium Cell.
Cell cultivation method is the same as that in 2.1.1
Preparation of model: Preparing the model by using the myocardium cell cultured for 48˜72 h, dividing the cell on the culture plate to following groups: Control Group, Model Group, Verapamil Group (2, 0.4, 0.08 mg/l final concentration) and CMPM Group (final concentration of 50, 10, 2, 0.4, 0.08, 0.016, 0.0032 mg/l), 3 wells for every group. Except the Control Group, the other groups are prepared by following method: placing the monolayer myocardium cell on center of culture plate on low glucose medium (containing Verapamil or CMPM with corresponding concentration), then placing the culture plate into the vacuum drying machine, filling nitrogen, and hermetically culturing, causing myocardial injury after oxygen lack for 15 hours, then being cultured for 1 hour by high glucose DMEM medium (95% atmosphere and 5% CO2) to cause reoxygention injury. Measuring the absorbance value at 540 nm by using MTT method, and the same as above, calculating the protective rate to figure out EC50.

[2] = tested on: ischemia/reperfusion damaged rat; experiment: Therapeutic administration, ischemia/reperfusion (LAD ligation) rat model; assay type: in vivo, SD rat; settings: therapeutic i.v. 5 minutes after ligation, Dosage 1.0 mg/kg
Experimental: (§1) Intraperitoneal injecting 6% Urethane with 20 ml/kg to anaesthetize the animal, fixing the animal on operating table in supine position; being connected with the electrocardiograph to detect the limb II lead electrocardiogram, tracheal intubating and connecting the animal with respirators, taking continuous positive end-expiratory pressure with tidal volume of 6 ml/200 g, frequency of 55/min and breathing ratio of 2:1. Carrying out thoracotomy on the gap between the forth and the fifth ribs of the left border of sternum, separating the ribs and removing the pericardium. Ligating at the left anterior descending coronary artery by using 6/0 silk suture by the sign of left auricle lower margin, and setting a piece of polyethylene pipe with diameter of 1 mm between the ligation silk suture and blood vessel. Ligating the silk suture to press the left anterior descending coronary artery by the polyethylene pipe and cause myocardial ischemia. Taking part of myocardium becoming grey and electrocardiogram S-T segment raising as the sign of that the left anterior descending coronary artery is ligated successfully. Taking out the polyethylene pipe carefully to cause the reperfusion. Verifying the success of reoxygenation by reactive hyperemia of ischemia area and the descending of the raised S-T segment by ½. Reoxygenation for 30 minutes, then sampling blood from abdominal aorta to prepare serum which is used to measure the biochemical index (measuring the content of CK, LDH, MDA, SPD according to the Reagent kits Instruction).
(§2) Rat's heart was taken and after being blooded, the residual blood in the ventricle was cleaned by normal saline to weight the weight of whole heart. Fat was removed, the heart was crosscut into 4˜5 pieces and was put into a tube, to be carried out NBT dye at 37° C. (dying the normal tissue rather than the ischemic tissue), taking photographs. The ischemic area of the myocardium was cut to take a weighing, and then the myocardial infarct size (MIS) was calculated by the ratio of weight of the ischemic area of the myocardium to whole heart weight, which was present by percentage.
The drug was intravenously injured on the tail 5 minutes after ligation of LAD, then reperfusion was carried out for 30 min 30 minutes after ligation of LAD. Heart was taken after sampling blood from abdominal aorta. The biochemical index and the myocardial infarction size were measure by using the above method.

[3] = tested on: ischemia/reperfusion damaged rat; experiment: Preventive administration, ischemia/reperfusion (LAD ligation) rat model; assay type: in vivo, SD rat; settings: preventive i.v. 30 min before ligation, Dosage 1.0 mg/kg
Experimental: 70 SD rats (250˜300 g per rat) were taken, wherein, 60 rats were divided into 6 groups evenly and randomly according to weight, every 10 of each group, the remains are kept for replacement of dead animals of each group.
Normal Control Group: carrying out sham operation, threading a silk suture through the left anterior descending coronary artery (LAD) without ligation;
Model Group: intravenous injecting saline solution of 5 ml/kg 30 minutes before ligation, and the preparation of hypoxia/reoxygenation model is the same as Normal Control Group;
Positive Control Group: intravenous injecting Verapamil of 1 ml/kg 30 min before ligation, preparation of the hypoxia/reoxygenation model is the same as Normal Control Group. […]
Preparation of the Model:
as §1, §2

[4] = tested on: primary culture myocardium cell damaged by adriamycin; experiment: Effect of CMPC against adriamycin injury of primary culture myocardium cell (MTT); assay type: cell-based, Neonatal SD rat
Experimental: Remove the fibroblast through differential adhesion and chemistry method, and inoculate myocardium cell on the 96-well plates.
2.1.2 The Against Function of Cmpc to Injury of Adriamycin to Primary Culture Myocardium Cell.
Cell culture method is the same as 2.1.1
Preparation of model: Blank Control Group: cultivating myocardium cell with DMEM-H-15;
Model Group: adding 1 mg/L adriamycin, washing the plate with DMEM-H-15 two times after being cultivated for 1 h, adding DMEM-H-15 for cultivation;
Protective rate=(Ax−Amodel)/(Acontrol−Amodel)×100%;
(Ax, Amode, Acontrol respectively represent Absorbance value of Drug administration groups, Model Group and Blank control group.

## COc1ccc(CCN(C)CCCC(C#N)(c2ccc(OC)c(OC)c2)C(C)C)cc1OC (stereo not shown) [Positive Control Group, Verapamil, reference compound]
[1]; Plate 1, Dosage 0.08 mg/L
  % (protective rate): 14.16%
  A540: 0.524 ± 0.036
[1]; Plate 1, Dosage 0.4 mg/L
  % (protective rate): 20.15%
  A540: 0.541 ± 0.029
[1]; Plate 1, Dosage 2 mg/L
  % (protective rate): 12.87%
  A540: 0.520 ± 0.060
[1]; Plate 2, Dosage 0.08 mg/L
  % (protective rate): 23.85%
  A540: 0.553 ± 0.031
[1]; Plate 2, Dosage 0.4 mg/L
  % (protective rate): 33.18%
  A540: 0.579 ± 0.028
[1]; Plate 2, Dosage 2 mg/L
  % (protective rate): 29.63%
  A540: 0.569 ± 0.029
[1]; Plate 3, Dosage 0.08 mg/L
  % (protective rate): 30.62%
  A540: 0.787 ± 0.020
[1]; Plate 3, Dosage 0.4 mg/L
  % (protective rate): 35.44%
  A540: 0.795 ± 0.022
[1]; Plate 3, Dosage 2 mg/L
  % (protective rate): 41.37%
  A540: 0.805 ± 0.018
[2]; rat serum
  CK: 1.777 ± 0.389 U/ml
  LDH: 6791.96 ± 570.85 U/L
  MDA: 4.960 ± 0.338 nmol/mL
  SOD: 140.36 ± 14.00 U/ml
[2]
  MIS (myocardial infarct size): 4.07 ± 1.56 %
[3]; ischemic area weight/whole heart weight
  MIS (myocardial infarct size): 4.19 ± 0.70 %
[3]; rat serum
  CK: 2.087 ± 0.432 U/ml
  LDH: 7376.09 ± 784.64 U/L
  MDA: 4.755 ± 0.718 nmol/mL
  SOD: 135.63 ± 7.878 U/ml
[4]; Plate 1, Dosage 0.08 mg/L
  % (protective rate): 31.53%
  A540: 0.694 ± 0.110
[4]; Plate 1, Dosage 0.4 mg/L
  % (protective rate): 50.23%
  A540: 0.714 ± 0.021
[4]; Plate 1, Dosage 2 mg/L
  % (protective rate): 46.83%
  A540: 0.710 ± 0.099
[4]; Plate 2, Dosage 0.08 mg/L
  % (protective rate): 30.45%
  A540: 0.749 ± 0.031
[4]; Plate 2, Dosage 0.4 mg/L
  % (protective rate): 30.29%
  A540: 0.749 ± 0.050
[4]; Plate 2, Dosage 2 mg/L
  % (protective rate): 46.68%
  A540: 0.767 ± 0.045
[4]; Plate 3, Dosage 0.08 mg/L
  % (protective rate): 30.09%
  A540: 0.755 ± 0.021
[4]; Plate 3, Dosage 0.4 mg/L
  % (protective rate): 37.28%
  A540: 0.770 ± 0.012
[4]; Plate 3, Dosage 2 mg/L
  % (protective rate): 36.18%
  A540: 0.768 ± 0.013
